The record followed here is patent US6403607B1, “Sulfonamide derivatives and drugs containing the same as the active ingredient” (priority 1998, dated 2002).

For orientation: HC50 means the concentration giving 50% haemolysis. Read a high HC50 as weaker haemolysis. A word on the IC50: it is the concentration that gives 50% inhibition. Low values mean inhibition by little substance, high ones a need for much substance. One may read the MIC as the lowest concentration that inhibits growth of the organism. A high value points to a need for much substance. In general, ED50 refers to the midpoint of the dose-response relation. A low value points to an effect at a small dose.

For series [1], the system named is HCl-ethanol ulcer in the gland gastric region. The experiment in a line: HCl-ethanol ulcer. The series is classed as in vivo, Rats. On the procedure: HCl-ethanol Ulcer Rats were fasted for 24 hours and orally administered with a drug. After one hour, 60% ethanol containing 0.15 N hydrochloric acid (1 ml/rat) was perorally administered to each rat. One hour after ethanol administration, the size of ulcer in the gland gastric region was measured for evaluation of anti-ulcer effects of the drug.

For another series, the system named is rat red blood cell. The series can be described thus: Hemolytic action. The series is classed as cell-based. To be noted: 10% rat red blood cell stock, 1% DMSO containing saline, 30 minutes at 37° C., absorbance 540 nm. Here is the method:
Hemolytic Action […] After incubation for 30 minutes at, 37° C., the mixture was centrifugally separated and the supernatant was obtained. The absorbance (540 nm) of the supernatant was measured. The hemolysis ratio was calculated.

A further series addresses H/K-ATPase (Oryctolagus cuniculus, UniProt P27112). The experiment in a line: H/K-ATPase inhibition. The series is classed as biochemical. To be noted: pH 7.4, H/K-ATPase from rabbit gastric mucous membrane. On the procedure: H/K-ATPase Inhibition The inhibitory effect was measured under pH 7.4, by using H/K-ATPase isolated and purified from the rabbit gastric mucous membrane.

Series [2] deals with ethanol ulcer in the gland gastric region. The series can be described thus: Ethanol ulcer. Particulars: rats fasted 24 hours, drug oral, 99.5% ethanol 1 ml/rat after one hour, size of ulcer one hour later; for Suppression: dose not given. The series is classed as in vivo. On the procedure: Ethanol Ulcer Rats were fasted for 24 hours and orally administered with a drug. After one hour, 99.5% ethanol (1 ml/rat) was fed through oral administration. After one hour of ethanol administration, the abdomens of the rats were dissected and the size of ulcer in the gland gastric region was measured for each rat.

A further series relates to Helicobacter pylori. The series can be described thus: Anti-Helicobacter-pylori action (agar plate dilution MIC). The series is classed as cell-based. Particulars: clinically isolated 10 bacterial strains, agar plate dilution method. Here is the method:
Anti-Helicobacter-pylori Action
Using clinically isolated 10 bacterial strains, the minimum inhibitory concentration (MIC) was measured according to the agar plate dilution method.

The mark [3] stands for this setting: rats fasted 24 hours, drug oral, 60% ethanol containing 0.15 N hydrochloric acid 1 ml/rat after one hour, size of ulcer one hour later, dose not given.

H/K-ATPase, sequence (P27112 whole entry): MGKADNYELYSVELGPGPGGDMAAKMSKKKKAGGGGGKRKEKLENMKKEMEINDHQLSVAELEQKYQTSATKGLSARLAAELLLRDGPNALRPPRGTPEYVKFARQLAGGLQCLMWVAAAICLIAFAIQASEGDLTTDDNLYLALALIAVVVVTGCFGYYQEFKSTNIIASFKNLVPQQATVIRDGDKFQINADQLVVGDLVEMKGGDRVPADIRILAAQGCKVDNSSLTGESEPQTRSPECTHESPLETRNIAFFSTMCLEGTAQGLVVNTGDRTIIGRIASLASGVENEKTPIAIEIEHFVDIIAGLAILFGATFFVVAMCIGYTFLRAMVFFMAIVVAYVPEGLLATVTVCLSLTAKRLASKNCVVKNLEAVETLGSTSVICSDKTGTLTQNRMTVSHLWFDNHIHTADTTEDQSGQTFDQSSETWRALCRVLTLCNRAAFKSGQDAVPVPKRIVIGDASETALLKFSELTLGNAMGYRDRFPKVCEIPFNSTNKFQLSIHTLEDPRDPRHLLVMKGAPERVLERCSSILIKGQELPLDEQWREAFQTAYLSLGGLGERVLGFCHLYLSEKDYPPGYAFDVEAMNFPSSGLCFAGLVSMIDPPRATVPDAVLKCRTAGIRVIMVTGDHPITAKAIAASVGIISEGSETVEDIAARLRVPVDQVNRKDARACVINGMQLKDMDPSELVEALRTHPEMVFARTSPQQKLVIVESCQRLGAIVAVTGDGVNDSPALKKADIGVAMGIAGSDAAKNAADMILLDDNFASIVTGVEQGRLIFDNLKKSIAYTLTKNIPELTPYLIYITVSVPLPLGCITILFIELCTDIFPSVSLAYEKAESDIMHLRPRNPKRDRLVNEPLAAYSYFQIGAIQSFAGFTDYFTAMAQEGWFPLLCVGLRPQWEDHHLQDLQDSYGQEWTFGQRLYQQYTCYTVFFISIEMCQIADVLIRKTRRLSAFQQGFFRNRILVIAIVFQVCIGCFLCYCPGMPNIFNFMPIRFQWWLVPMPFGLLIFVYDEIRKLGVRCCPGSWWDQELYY
H/K-ATPase, sequence (P18597 whole entry partner): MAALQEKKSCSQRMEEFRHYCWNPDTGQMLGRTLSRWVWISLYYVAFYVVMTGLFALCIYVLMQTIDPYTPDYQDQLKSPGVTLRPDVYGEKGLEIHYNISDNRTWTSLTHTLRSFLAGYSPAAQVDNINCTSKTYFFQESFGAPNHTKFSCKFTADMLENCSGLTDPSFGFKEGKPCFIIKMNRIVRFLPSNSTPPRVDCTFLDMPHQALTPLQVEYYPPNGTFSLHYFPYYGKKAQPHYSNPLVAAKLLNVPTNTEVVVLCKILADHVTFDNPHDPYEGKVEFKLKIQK

On to `CCCCCCS(=O)(=O)N(CCN(C)C)c1ccccc1NCCOc1ccc(Cl)cc1.Cl` [Example 32, N-[2-(Dimethylamino)ethyl]-N-(1-hexanesulfonyl)-N′-[2-(4-chlorophenoxy)ethyl]-o-phenylenediamine Hydrochloride], for which, in series [1] (setting [3]), the Suppression stood at 88%. Also, in the series with rat red blood cell, the HC50 was greater than 100 µg/mL.
`CCCCCCCS(=O)(=O)N(CCOCCN)c1ccccc1NCCOc1ccc(Cl)cc1` [Example 29, N-[2-(2-Amino)ethoxyethyl]-N-(1-heptanesulfonyl)-N′-[2-(4-chlorophenoxy)ethyl]-o-phenylenediamine] yielded an IC50 at H/K-ATPase of 5 µM.
For the compound `CN(C)CCN(c1ccccc1N1CCOCC1)S(=O)(=O)c1ccc(Cl)cc1.Cl` [Example 128, 2-(4-Morpholino)-1-[N-[2-(dimethylamino)ethyl]-N-(4-chlorobenzenesulfonyl)]aminobenzene Hydrochloride Salt], the HC50 in the series on rat red blood cell was greater than 100 µg/mL.
In series [1] (setting [3]), `CN(C)CCN(c1ccccc1NCCOc1cccc(Cl)c1)S(=O)(=O)c1ccc(Cl)cc1.Cl` [Example 58, N-[2-(Dimethylamino)ethyl]-N-(4-chlorobenzenesulfonyl)-N′-[2-(3-chlorophenoxy)ethyl]-o-phenylenediamine Hydrochloride] had a Suppression of 88%. In the series with rat red blood cell, this compound gave an HC50 of 71.2 µg/mL.
In the series with rat red blood cell, `CN(C)CCN(c1ccccc1NCCOc1ccc(Cl)cc1)S(=O)(=O)c1cccc2cnccc12.Cl` [Example 57, N-[2-(Dimethylamino)ethyl]-N-(5-isoquinolinesulfonyl)-N′-[2-(4-chlorophenoxy)ethyl]-o-phenylenediamine Hydrochloride] gave an HC50 greater than 100 µg/mL.
Regarding `COc1ccc(S(=O)(=O)N(CCN(C)C)c2ccccc2NCCOc2ccc(Cl)cc2)cc1.Cl` [Example 40, N-[2-(Dimethylamino)ethyl]-N-(4-methoxybenzenesulfonyl)-N′-[2-(4-chlorophenoxy)ethyl]-o-phenylenediamine Hydrochloride], in series [1] (setting [3]), the Suppression is 88%. In the series on rat red blood cell, this compound came in with an HC50 greater than 100 µg/mL.
`CCCCCCS(=O)(=O)N(CCOCCN)c1ccccc1NCCOc1ccc(Cl)cc1` [Example 28, N-[2-(2-Amino)ethoxyethyl]-N-(1-hexanesulfonyl)-N′-[2-(4-chlorophenoxy)ethyl]-o-phenylenediamine] came in with a Suppression in series [2] of 100%. Also, the IC50 on H/K-ATPase amounted to 79 µM.
Turning to `CN(C)CCN(c1ccccc1NCCOc1ccc(Cl)cc1)S(=O)(=O)c1ccccc1Cl.Cl` [Example 51, N-[2-(Dimethylamino)ethyl]-N-(2-chlorobenzenesulfonyl)-N′-[2-(4-chlorophenoxy)ethyl]-o-phenylenediamine Hydrochloride], the Suppression in series [1] (setting [3]) was 83%. Further, in the series on rat red blood cell, the HC50 is 84.6 µg/mL.
The corresponding values for `CN(C)CCN(c1ccccc1NCCOc1ccc(Cl)cc1)S(=O)(=O)c1ccc(F)cc1.Cl` [Example 42, N-[2-(Dimethylamino)ethyl]-N-(4-fluorobenzenesulfonyl)-N′-[2-(4-chlorophenoxy)ethyl]-o-phenylenediamine Hydrochloride] are 91% and greater than 100 µg/mL.
With `CN(C)CCN(c1ccccc1N(C)CCOc1ccc(Cl)cc1)S(=O)(=O)c1ccc(Cl)cc1.Cl` [Example 69], the Suppression in series [1] (setting [3]) was 99%.
The same measure, in the same setting: next, `CN(C)CCN(c1ccccc1Sc1ccc(Cl)cc1)S(=O)(=O)c1ccc(Cl)cc1.Cl` [Example 142, 2-(4-Chlorophenylthio)-N-(4-chlorobenzenesulfonyl)-N-(2-dimethylaminoethyl)aniline.HCl]: 98%.
`CN(C)CCN(c1ccccc1NCCOc1ccccc1)S(=O)(=O)c1ccc(Cl)cc1.Cl` [Example 50, N-[2-(Dimethylamino)ethyl]-N-(4-chlorobenzenesulfonyl)-N′-(2-phenoxyethyl)-o-phenylenediamine Hydrochloride] came in with a Suppression in series [1] (setting [3]) of 81%. In the series with rat red blood cell, this compound registered an HC50 greater than 100 µg/mL.
Take `NCCN(c1cccnc1NCCNc1ccc(Cl)cc1)S(=O)(=O)c1ccc(Cl)cc1` [Example 86, 3-[N-(4-Chlorobenzenesulfonyl)-N-(2-aminoethyl)]amino-2-[2-(4-chlorophenyl)aminoethyl]aminopyridine]: in series [2], the Suppression came to 79%. Also, on H/K-ATPase, the IC50 was 1.1 µM.
As for `CCS(=O)(=O)N(CCN(C)C)c1ccccc1NCCOc1ccc(Cl)cc1.Cl` [Example 30, N-[2-(Dimethylamino)ethyl]-N-ethanesulfonyl-N′-[2-(4-chlorophenoxy)ethyl]-o-phenylenediamine Hydrochloride], the HC50 in the series with rat red blood cell is greater than 100 µg/mL.
`CCS(=O)(=O)N(CCOCCN)c1ccccc1NCCOc1ccc(Cl)cc1` [Example 23, N-[2-(2-Amino)ethoxyethyl]-N-(1-ethanesulfonyl)-N′-[2-(4-chlorophenoxy)ethyl]-o-phenylenediamine] had a Suppression in series [2] of 98%. At H/K-ATPase, this compound came in with an IC50 of 230 µM.
Regarding `CN(C)CCN(c1ccc(NCCOc2ccc(Cl)cc2)cc1)S(=O)(=O)c1ccccc1Cl.Cl` [Example 56, N-[2-(Dimethylamino)ethyl]-N-(2-chlorobenzenesulfonyl)-N′-[2-(4-chlorophenoxy)ethyl]-p-phenylenediamine Hydrochloride], in series [1] (setting [3]), the Suppression is reported as 88%.
Same read-out and setting: the result for `CN(C)CCN(c1ccccc1NCCOc1ccc(Br)cc1)S(=O)(=O)c1ccc(Cl)cc1.Cl` [Example 54, N-[2-(Dimethylamino)ethyl]-N-(4-chlorobenzenesulfonyl)-N′-[2-(4-bromophenoxy)ethyl]-o-phenylenediamine Hydrochloride] reads 77%.
In turn, `CCCCCS(=O)(=O)N(CCOCCN)c1ccccc1NCCOc1ccc(Cl)cc1` [Example 27, N-[2-(2-Amino)ethoxyethyl]-N-(1-pentanesulfonyl)-N′-[2-(4-chlorophenoxy)ethyl]-o-phenylenediamine] yielded an IC50 against H/K-ATPase of 38 µM.
`CN(C)CCN(c1ccccc1N1CCNCC1)S(=O)(=O)c1ccc(Cl)cc1.Cl` [Example 129, 2-(1-Piperazino)-1-[N-[2-(dimethylamino)ethyl]-N-(4-chlorobenzenesulfonyl)]aminobenzene Hydrochloride Salt] returned an HC50 with rat red blood cell greater than 100 µg/mL.
For the compound `CN(C)CCN(c1ccccc1NCCOc1ccc(Cl)cc1)S(=O)(=O)c1ccc(Br)cc1.Cl` [Example 44, N-[2-(Dimethylamino)ethyl]-N-(4-bromobenzenesulfonyl)-N′-[2-(4-chlorophenoxy)ethyl]-o-phenylenediamine.HCl], the Suppression in series [1] (rat, in vivo, po) is listed as 87%.
As for `CN(C)CCN(c1ccccc1N(CCOc1ccc(Cl)cc1)Cc1ccccc1)S(=O)(=O)c1ccc(Cl)cc1.Cl` [Example 71, N-[2-(Dimethylamino)ethyl]-N-(4-chlorobenzenesulfonyl)-N′-benzyl-N′-[2-(4-chlorophenoxy)ethyl]-o-phenylenediamine Hydrochloride], the Suppression in series [1] (setting [3]) came out at 99%.
Regarding `CN(C)CCN(c1ccccc1N1CCN(c2ccc(Cl)cc2)CC1)S(=O)(=O)c1ccc(Cl)cc1` [Example 132, 2-[4-(4-Chlorophenyl)-1-piperazino]-1-[N-[2-(dimethylamino)ethyl]-N-(4-chlorobenzenesulfonyl)]aminobenzene], the MIC against Helicobacter pylori lay in the range of 3.13 to 12.5 µg/mL. The compound further gave a Suppression in series [1] (setting [3]) of 88%.
For the compound `CN(C)CCN(c1ccccc1NCCOc1ccc(Cl)cc1)S(=O)(=O)c1ccc(Cl)cc1.CN(C)CCN(c1ccccc1NCCOc1ccc(Cl)cc1)S(=O)(=O)c1ccc(Cl)cc1.O=C(O)C(O)C(O)C(=O)O` [Example 3, N-(4-Chlorobenzenesulfonyl)-N-(2-dimethylaminoethyl)-N′-[2-(4-chlorophenoxy)ethyl]-o-phenylenediamine ½ Tartaric Acid Salt], in series [2], the ED50 stood at 14 mg/kg and the Suppression is reported as 88%. In the series on Helicobacter pylori, this compound had a minimal inhibitory concentration (MIC) of 0.78 to 3.13 µg/mL. Moreover, the Suppression in series [1] (setting [3]) was determined as 91%. For the same compound, the HC50 in the series on rat red blood cell was 72.3 µg/mL.
On to `CN(C)CCN(c1ccccc1N1CCCN(c2ccc(Cl)cc2)CC1)S(=O)(=O)c1ccc(Cl)cc1.Cl` [Example 135, 2-[4-(4-Chlorophenyl)-1-homopiperazino]-1-[N-[2-(dimethylamino)ethyl]-N-(4-chlorobenzenesulfonyl)]aminobenzene.HCl], for which, in series [1] (setting [3]), the Suppression is on record as 89%.
The same measure, in the same setting: the result for `CN(C)CCN(c1ccccc1NCCOc1ccc(Cl)cc1)S(=O)(=O)c1cccc(Cl)c1.Cl` [Example 52, N-[2-(Dimethylamino)ethyl]-N-(3-chlorobenzenesulfonyl)-N′-[2-(4-chlorophenoxy)ethyl]-o-phenylenediamine Hydrochloride] reads 87%.
For `CN(C)CCN(c1ccccc1Oc1ccc(Cl)cc1)S(=O)(=O)c1ccc(Cl)cc1.Cl` [Example 145, 1-[N-[2-(Dimethylamino)ethyl]-N-(4-chlorobenzenesulfonyl)]-2-(4-chlorophenoxy)aniline.HCl], in the series on rat red blood cell, the HC50 was greater than 100 µg/mL.
